Data from ChEMBL document CHEMBL4020789, “Development of 5-hydroxypyrazole derivatives as reversible inhibitors of lysine specific demethylase 1” (Bioorg Med Chem Lett, 2017).

Experiments:
[1] = Half life in human microsomes; assay type: ADME, Microsome
[2] = Intrinsic clearance in human microsomes assessed […]; assay type: ADME, Microsome
[3] = Apparent permeability of the compound across apical side to basolateral side in human Caco2 cells; assay type: ADME, cell-based; details: Caco-2
[4] = Half life in mouse hepatocytes; assay type: ADME, cell-based, Hepatocyte
[5] = target: Voltage-gated inwardly rectifying potassium channel KCNH2 (Homo sapiens, UniProt Q12809); assay: Inhibition of human ERG by patch clamp assay
[6] = tested on: Mus musculus; assay: AUC in iv dosed mouse; assay type: ADME, organism-based; details: in vivo
[7] = Fraction unbound in mouse; assay type: ADME, organism-based; details: in vivo
[8] = Half life in po dosed mouse; assay type: ADME, organism-based; details: in vivo
[9] = Volume of distribution in mouse; assay type: ADME, organism-based; details: in vivo
[10] = Oral bioavailability in mouse; assay type: ADME, organism-based; details: in vivo
[11] = Clearance in mouse; assay type: ADME, organism-based; details: in vivo
[12] = Half life in iv dosed mouse; assay type: ADME, organism-based; details: in vivo

Sequence of Voltage-gated inwardly rectifying potassium channel KCNH2 (Q12809 whole entry): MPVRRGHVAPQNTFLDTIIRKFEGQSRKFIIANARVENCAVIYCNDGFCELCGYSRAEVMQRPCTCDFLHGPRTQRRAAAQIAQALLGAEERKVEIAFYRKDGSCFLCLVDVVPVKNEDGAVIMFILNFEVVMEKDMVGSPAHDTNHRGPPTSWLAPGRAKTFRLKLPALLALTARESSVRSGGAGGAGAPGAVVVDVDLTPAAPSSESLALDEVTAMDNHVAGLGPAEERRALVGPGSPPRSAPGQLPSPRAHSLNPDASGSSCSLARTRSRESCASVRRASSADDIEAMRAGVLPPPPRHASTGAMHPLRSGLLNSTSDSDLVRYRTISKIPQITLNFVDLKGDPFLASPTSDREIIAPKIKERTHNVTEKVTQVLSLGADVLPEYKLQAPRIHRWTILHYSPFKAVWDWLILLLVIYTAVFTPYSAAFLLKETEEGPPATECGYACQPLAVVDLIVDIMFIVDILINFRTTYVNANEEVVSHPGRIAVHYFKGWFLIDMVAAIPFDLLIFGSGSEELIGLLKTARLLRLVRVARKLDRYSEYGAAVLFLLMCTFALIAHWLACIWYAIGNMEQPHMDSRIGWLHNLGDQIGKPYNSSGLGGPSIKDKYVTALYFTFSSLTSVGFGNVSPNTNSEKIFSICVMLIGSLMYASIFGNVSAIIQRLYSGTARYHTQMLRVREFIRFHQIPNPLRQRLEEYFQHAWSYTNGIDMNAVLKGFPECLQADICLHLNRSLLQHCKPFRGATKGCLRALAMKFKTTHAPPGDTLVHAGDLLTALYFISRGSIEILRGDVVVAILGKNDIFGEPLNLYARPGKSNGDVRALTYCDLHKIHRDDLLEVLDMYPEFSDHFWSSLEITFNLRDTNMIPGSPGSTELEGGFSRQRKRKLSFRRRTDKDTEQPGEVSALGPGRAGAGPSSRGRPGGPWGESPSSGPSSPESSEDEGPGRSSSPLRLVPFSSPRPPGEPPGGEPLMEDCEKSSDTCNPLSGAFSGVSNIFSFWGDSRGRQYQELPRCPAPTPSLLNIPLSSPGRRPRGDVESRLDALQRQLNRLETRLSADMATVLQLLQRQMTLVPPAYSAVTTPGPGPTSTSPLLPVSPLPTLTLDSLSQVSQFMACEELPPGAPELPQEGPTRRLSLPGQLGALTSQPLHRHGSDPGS

N#Cc1ccc(-n2nc(C(=O)N3CCC[C@@H](N)C3)cc2OCC(O)C(F)(F)F)cc1 (some centres undefined)
half-life [1]: 4.17 h | CL [2]: 5.6 µL/min | Papp A→B [3]: < 1 nm/s

Cc1cc(COc2cc(C(=O)N3CCC[C@@H](N)C3)nn2-c2ccc(C#N)cc2)on1
half-life [1]: 3.35 h | CL [2]: 6.91 µL/min | half-life [4]: 1.13 h | Papp A→B [3]: 7.3 nm/s

Cc1ccc(-c2ncc(OC[C@H]3CCNC3)cc2-c2ccc(C#N)cc2)cc1
IC50 [5]: 3 µM

CCc1cc(COc2cc(C(=O)N3CCC[C@@H](N)C3)nn2-c2ccc(C#N)cc2)on1
AUC [6]: 0.405 µg/h/mL | fraction unbound [7]: 0.19 | half-life [8]: 1.3 h | Vd [9]: 3.1 L/kg | bioavailability [10]: 38% | clearance [11]: 2.74 L/h/kg | half-life [12]: 0.9 h | half-life [1]: 4.17 h | CL [2]: 5.6 µL/min | half-life [4]: 2.02 h | Papp A→B [3]: 4.15 nm/s
